Laboratory results from US20080138395A1, “Pharmaceutical Composition for the Prevention and Control of Cancer” (priority 2005, published 2008).

System: H69: human, small cell lung carcinoma
Test: Apoptosis (Annexin testing system) and defective cells in H69 tumor cells in vitro
Assay type: cell-based
Details: 10 days of treatment
Text: The effect of reduced glutathion (G-SH) and anthocyans and betacyans on tumor cell lines, specifically H69: human, small cell lung carcinoma, was examined by in vitro studies, both individually and with various combinations of the ingredient. G-SH and betalain were used in the form of dry extract from beta vulgaris (product: Betatom by Messrs. Sprüh-Atom Schumann & Sohn GmbH, Karlsruhe) and, for purposes of comparison, anthocyans in the form of dry extract from cassis (black currant) and vaccinium (blueberry). The tumor cells were sown in vitro in DMEM with 10% FCS. The final concentration of G-SH, Betatom, cassis and vaccinium, the substances added, was 1 mM. Apoptosis was measured with an Annexin testing system. All tests were repeated once. The effect on H69 tumor cells may be gathered from the table below. After treatment of the cells for ten days, the number both of apoptotic and defective cells was clearly higher in comparison with untreated controls.

[1] = 1 mM, difference to untreated control
[2] = final concentration of substances added 1 mM, DMEM with 10% FCS

N[C@@H](CCC(=O)N[C@@H](CS)C(=O)NCC(=O)O)C(=O)O [GSH, gamma glutamyl cysteinyl glycin]
apoptotic cells: variation compared with control (%) [1]: −5%
defective cells: variation compared with control (%) [1]: 8.9%
apoptotic cells (% of total cells) [2]: 21.9 % of total cells
defective cells (% of total cells) [2]: 37.9 % of total cells
